Measured values: BigSolDB 2.1

O=C(O)c1ccccc1
solubility (mole fraction)
Settings | 283.15 K | 288.15 K | 293.15 K | 298.15 K | 303.15 K | 308.15 K | 313.15 K | 318.15 K | 323.15 K | 328.15 K
in 2-pentanone | 0.163 | 0.18 | 0.196 | 0.215 | 0.234 | 0.256 | 0.279 | 0.315 | 0.349 | 0.388
in diacetone alcohol | 0.234 | 0.251 | 0.269 | 0.287 | 0.306 | 0.315 | 0.336 | 0.367 | 0.396 | 0.426
in isooctane | 0.002 | 0.003 | 0.005 | 0.007 | 0.01 | 0.013 | 0.018 | 0.023 | 0.031 | 0.04
in methyl acetate | 0.125 | 0.152 | 0.175 | 0.198 | 0.213 | 0.237 | 0.26 | 0.282 | 0.318 | 0.348
in n-pentyl acetate | 0.091 | 0.112 | 0.133 | 0.159 | 0.179 | 0.198 | 0.226 | 0.252 | 0.282 | 0.316
in tributyl phosphate | 0.492 | 0.507 | 0.522 | 0.53 | 0.543 | 0.553 | 0.563 | 0.581 | 0.6 | 0.631
